This note sets out measurements from ChEMBL document CHEMBL1909046, “DrugMatrix in vitro pharmacology data”.

For series [1], the target named is Prostaglandin G/H synthase 1 (Homo sapiens, UniProt P23219). The series can be described thus: biochemical. The note with it: platelet. The series is classed as tissue-based, Platelet.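 Further: inhibition of COX-1 enzyme activity, with arachidonic acid supplied as substrate; in other assays of this panel Not Active means under 50% inhibition at 10 µM.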
The nature of series [2]: DRUGMATRIX: ATPase, Na+/K+ enzyme inhibition (substrate: ATP). The series is classed as tissue-based, Sus scrofa, Heart. The note with it: Not Active = under 50% inhibition at 10 µM.
The target in a further series is T1, Progesterone receptor (Bos taurus, UniProt Q690N0).
T1 sequence (Q690N0 whole entry): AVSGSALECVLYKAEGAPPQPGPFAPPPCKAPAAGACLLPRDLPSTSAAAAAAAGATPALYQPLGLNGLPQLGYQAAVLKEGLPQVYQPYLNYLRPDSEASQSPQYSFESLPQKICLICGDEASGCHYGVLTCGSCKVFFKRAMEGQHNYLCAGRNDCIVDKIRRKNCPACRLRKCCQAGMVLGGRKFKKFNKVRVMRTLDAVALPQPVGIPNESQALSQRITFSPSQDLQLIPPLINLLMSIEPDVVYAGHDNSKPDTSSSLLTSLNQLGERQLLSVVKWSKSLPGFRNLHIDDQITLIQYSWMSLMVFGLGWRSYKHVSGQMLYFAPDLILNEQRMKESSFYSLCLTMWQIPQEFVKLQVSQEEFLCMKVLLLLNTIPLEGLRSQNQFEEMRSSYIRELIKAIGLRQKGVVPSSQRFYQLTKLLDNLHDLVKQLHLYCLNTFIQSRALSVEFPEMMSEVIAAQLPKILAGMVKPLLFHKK
The series is described as follows: DRUGMATRIX: Progesterone radioligand binding (ligand: [3H] R-5020). As to conditions: Not Active = under 50% inhibition at 10 µM. The series is classed as tissue-based, Uterus.

Another series deals with D(3) dopamine receptor (Homo sapiens, UniProt P35462). The series is described as follows: DRUGMATRIX: Dopamine D3 radioligand binding (ligand: [3H] Spiperone). In kind it is cell membranes, CHO, Membrane.
Chain of D(3) dopamine receptor (P35462 whole entry): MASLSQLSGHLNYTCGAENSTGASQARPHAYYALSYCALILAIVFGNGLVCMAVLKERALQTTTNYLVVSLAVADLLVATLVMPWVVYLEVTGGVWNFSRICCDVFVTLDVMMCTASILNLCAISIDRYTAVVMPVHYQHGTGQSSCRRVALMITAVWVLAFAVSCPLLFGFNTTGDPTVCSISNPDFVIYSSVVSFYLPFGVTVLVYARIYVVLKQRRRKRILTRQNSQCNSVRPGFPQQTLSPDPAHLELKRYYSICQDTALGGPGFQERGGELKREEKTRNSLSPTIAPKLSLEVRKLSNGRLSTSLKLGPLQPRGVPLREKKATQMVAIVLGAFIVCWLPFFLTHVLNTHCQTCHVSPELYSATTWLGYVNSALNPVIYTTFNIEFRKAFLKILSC
Series [3] concerns the target Vascular endothelial growth factor receptor 1 (Homo sapiens, UniProt P17948). The series is classed as cell-based. As to conditions: huvec. Further: in other assays of this panel Not Active means under 50% inhibition at 10 µM.
A further series addresses Cytochrome P450 2E1 (Homo sapiens, UniProt P05181). As to conditions: bti-tn-5b1-4.

As a reminder, the IC50 is the concentration at which inhibition is half-maximal. Broadly, the Ki is the dissociation constant of the complex between target and ligand, obtained from inhibition or displacement.

Chain of Cytochrome P450 2E1 (P05181 whole entry): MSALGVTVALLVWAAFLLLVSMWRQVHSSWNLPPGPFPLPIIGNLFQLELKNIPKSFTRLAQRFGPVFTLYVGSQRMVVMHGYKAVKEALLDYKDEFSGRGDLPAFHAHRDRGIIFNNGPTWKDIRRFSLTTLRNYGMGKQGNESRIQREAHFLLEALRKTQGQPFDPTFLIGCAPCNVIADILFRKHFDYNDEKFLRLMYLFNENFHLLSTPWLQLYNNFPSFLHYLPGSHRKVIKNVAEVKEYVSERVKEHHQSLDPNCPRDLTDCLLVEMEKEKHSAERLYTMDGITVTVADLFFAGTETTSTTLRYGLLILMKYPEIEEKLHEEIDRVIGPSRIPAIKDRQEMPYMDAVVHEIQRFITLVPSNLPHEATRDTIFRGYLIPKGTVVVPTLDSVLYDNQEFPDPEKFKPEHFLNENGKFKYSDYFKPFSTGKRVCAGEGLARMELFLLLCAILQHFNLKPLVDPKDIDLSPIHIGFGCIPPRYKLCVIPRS
Chain of Vascular endothelial growth factor receptor 1 (P17948 whole entry): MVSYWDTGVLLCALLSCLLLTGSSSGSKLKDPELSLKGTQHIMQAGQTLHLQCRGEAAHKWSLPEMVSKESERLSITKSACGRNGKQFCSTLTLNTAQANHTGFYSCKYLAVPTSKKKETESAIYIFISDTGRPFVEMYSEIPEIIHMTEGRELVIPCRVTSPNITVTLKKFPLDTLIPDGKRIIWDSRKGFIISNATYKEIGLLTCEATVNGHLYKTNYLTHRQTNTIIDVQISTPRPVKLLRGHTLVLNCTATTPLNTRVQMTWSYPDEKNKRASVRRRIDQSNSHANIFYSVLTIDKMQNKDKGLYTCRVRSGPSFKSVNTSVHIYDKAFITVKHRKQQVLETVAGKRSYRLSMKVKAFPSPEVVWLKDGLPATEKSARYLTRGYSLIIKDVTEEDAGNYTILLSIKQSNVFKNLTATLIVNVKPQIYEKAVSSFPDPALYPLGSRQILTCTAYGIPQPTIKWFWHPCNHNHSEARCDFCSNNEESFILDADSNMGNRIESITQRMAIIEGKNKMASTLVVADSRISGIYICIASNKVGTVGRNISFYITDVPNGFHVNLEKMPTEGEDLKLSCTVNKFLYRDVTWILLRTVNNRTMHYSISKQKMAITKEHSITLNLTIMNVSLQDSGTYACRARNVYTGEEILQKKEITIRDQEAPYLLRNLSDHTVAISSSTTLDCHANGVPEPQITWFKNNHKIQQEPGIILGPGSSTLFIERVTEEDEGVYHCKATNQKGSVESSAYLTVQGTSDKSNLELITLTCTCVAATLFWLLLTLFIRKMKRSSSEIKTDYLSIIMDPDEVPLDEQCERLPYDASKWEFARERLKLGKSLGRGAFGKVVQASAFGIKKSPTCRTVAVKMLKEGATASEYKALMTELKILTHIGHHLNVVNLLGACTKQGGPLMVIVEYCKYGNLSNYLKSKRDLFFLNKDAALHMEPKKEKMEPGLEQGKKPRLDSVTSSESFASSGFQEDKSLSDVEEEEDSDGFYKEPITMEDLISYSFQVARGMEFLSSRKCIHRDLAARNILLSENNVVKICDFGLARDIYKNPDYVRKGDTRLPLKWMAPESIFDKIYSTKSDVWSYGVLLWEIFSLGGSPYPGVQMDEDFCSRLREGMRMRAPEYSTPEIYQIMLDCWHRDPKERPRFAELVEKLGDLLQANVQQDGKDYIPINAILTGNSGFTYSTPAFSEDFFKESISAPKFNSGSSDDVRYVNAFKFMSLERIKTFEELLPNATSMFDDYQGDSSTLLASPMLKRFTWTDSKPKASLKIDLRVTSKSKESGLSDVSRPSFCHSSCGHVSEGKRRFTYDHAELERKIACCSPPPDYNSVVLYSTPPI
Chain of Prostaglandin G/H synthase 1 (P23219 whole entry): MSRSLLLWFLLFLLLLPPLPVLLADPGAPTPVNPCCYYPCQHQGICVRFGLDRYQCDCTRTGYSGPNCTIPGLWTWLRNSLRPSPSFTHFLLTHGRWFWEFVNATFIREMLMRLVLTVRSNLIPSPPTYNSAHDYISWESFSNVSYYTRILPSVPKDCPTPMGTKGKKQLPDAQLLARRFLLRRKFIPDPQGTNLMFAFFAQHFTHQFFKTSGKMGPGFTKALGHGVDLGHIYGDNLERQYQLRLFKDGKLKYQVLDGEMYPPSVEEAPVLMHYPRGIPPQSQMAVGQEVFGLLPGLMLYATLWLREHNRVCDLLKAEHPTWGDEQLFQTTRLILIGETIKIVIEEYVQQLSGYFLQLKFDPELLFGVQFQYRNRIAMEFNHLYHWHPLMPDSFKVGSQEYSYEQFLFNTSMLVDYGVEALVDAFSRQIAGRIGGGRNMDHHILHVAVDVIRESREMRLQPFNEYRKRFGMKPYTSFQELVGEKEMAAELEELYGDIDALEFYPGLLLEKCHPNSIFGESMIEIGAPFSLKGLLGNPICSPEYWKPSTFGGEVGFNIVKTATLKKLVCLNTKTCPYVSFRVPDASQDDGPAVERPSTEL

For the compound `CCN(CC)N=O` [N-NITROSODIETHYLAMINE], the IC50 result (in series [1]; in series [2]; at Progesterone receptor; at D(3) dopamine receptor (cho); in series [3]; against Cytochrome P450 2E1) was “Not Active” throughout. In addition, the Ki result (in series [2]; on Cytochrome P450 2E1) was “Not Active” each time.
Regarding `CO[C@@]12[C@H](COC(N)=O)C3=C(C(=O)C(C)=C(N)C3=O)N1C[C@@H]1N[C@@H]12` [MITOMYCIN], the IC50 result (in series [1]; in series [2]; at Progesterone receptor; at D(3) dopamine receptor (cho); in series [3]; at Cytochrome P450 2E1) was “Not Active” each time. Also, the Ki entry (in series [2]; on Cytochrome P450 2E1) was “Not Active” throughout.
LEAD(IV) ACETATE: the IC50 result (in series [1]; in series [2]; on Progesterone receptor; at D(3) dopamine receptor (cho); in series [3]; at Cytochrome P450 2E1) was “Not Active” each time. In addition, the Ki result (in series [1]; in series [2]; on Progesterone receptor; at D(3) dopamine receptor (cho); in series [3]; at Cytochrome P450 2E1) was “Not Active” in each case.
`CC[C@H](C)C(=O)O[C@H]1CCC=C2C=C[C@H](C)[C@H](CC[C@@H]3C[C@@H](O)CC(=O)O3)[C@H]21` [MEVASTATIN]: the IC50 result (in series [1]; in series [2]; on Progesterone receptor; on D(3) dopamine receptor (cho); in series [3]; against Cytochrome P450 2E1) was “Not Active” in each case. Further, the Ki result (in series [2]; on Cytochrome P450 2E1) was “Not Active” throughout.
Consider `CC1=C(/C=C/C(C)=C/C=C/C(C)=C/C(=O)O)C(C)(C)CCC1` [TRETINOIN], for which the IC50 entry (in series [1]; in series [2]; at Progesterone receptor; on D(3) dopamine receptor (cho); in series [3]; against Cytochrome P450 2E1) was “Not Active” each time. The Ki result (in series [2]; at Cytochrome P450 2E1) was “Not Active” in each case.
For `CC[C@@]1(O)C(=O)OCc2c1cc1n(c2=O)Cc2cc3c(CN(C)C)c(O)ccc3nc2-1` [TOPOTECAN], the IC50 result (in series [1]; in series [2]; at Progesterone receptor; on D(3) dopamine receptor (cho); in series [3]; against Cytochrome P450 2E1) was “Not Active” each time. Also, the Ki result (in series [2]; at Cytochrome P450 2E1) was “Not Active” throughout.
For `O=C(OC[C@H]1O[C@@H](OC(=O)c2cc(O)c(O)c(OC(=O)c3cc(O)c(O)c(O)c3)c2)[C@H](OC(=O)c2cc(O)c(O)c(OC(=O)c3cc(O)c(O)c(O)c3)c2)[C@@H](OC(=O)c2cc(O)c(O)c(OC(=O)c3cc(O)c(O)c(O)c3)c2)[C@@H]1OC(=O)c1cc(O)c(O)c(OC(=O)c2cc(O)c(O)c(O)c2)c1)c1cc(O)c(O)c(OC(=O)c2cc(O)c(O)c(O)c2)c1` [TANNIC ACID], the IC50 result in series [1] was “Not Active”; in series [2] (read-out: IC50), 1340 nM; at Progesterone receptor, “Not Active”; on D(3) dopamine receptor (cho) it was “Not Active”; in series [3], “Not Active”; against Cytochrome P450 2E1, “Not Active”. The Ki entry at Cytochrome P450 2E1 is listed as “Not Active”.
With `CC(Cl)(Cl)Cl` [TRICHLOROETHANE], the IC50 entry (in series [1]; in series [2]; at Progesterone receptor; on D(3) dopamine receptor (cho); in series [3]; on Cytochrome P450 2E1) was “Not Active” throughout. Besides, the Ki result (in series [2]; on Cytochrome P450 2E1) was “Not Active” throughout.
`C=CCc1ccc2c(c1)OCO2` [SAFROLE]: the IC50 entry (in series [1]; in series [2]; at Progesterone receptor; on D(3) dopamine receptor (cho); in series [3]; on Cytochrome P450 2E1) was “Not Active” throughout. Also, the Ki entry (in series [2]; on Cytochrome P450 2E1) was “Not Active” throughout.
On to `O=C1CC[C@@]2(O)[C@H]3Cc4ccc(O)c5c4[C@@]2(CCN3CC2CC2)[C@H]1O5` [NALTREXONE], for which the IC50 entry (in series [1]; in series [2]; at Progesterone receptor; on D(3) dopamine receptor (cho); in series [3]; against Cytochrome P450 2E1) was “Not Active” in each case. In addition, the Ki result (in series [2]; at Cytochrome P450 2E1) was “Not Active” each time.
`CN1C(=O)OC(C)(C)C1=O` [TRIMETHADIONE]: the IC50 entry (in series [1]; in series [2]; on Progesterone receptor; on D(3) dopamine receptor (cho); in series [3]; on Cytochrome P450 2E1) was “Not Active” throughout. In addition, the Ki result (in series [2]; at Cytochrome P450 2E1) was “Not Active” throughout.
Turning to `CC(O)C(=O)O` (centres undefined) [LACTIC ACID], the IC50 entry (in series [1]; in series [2]; at Progesterone receptor; at D(3) dopamine receptor (cho); in series [3]; on Cytochrome P450 2E1) was “Not Active” throughout. For the same compound, the Ki result (in series [2]; at Cytochrome P450 2E1) was “Not Active” in each case.
As for `C[N+]1(C)[C@@H]2C[C@@H](OC(=O)[C@H](CO)c3ccccc3)C[C@H]1[C@@H]1O[C@@H]12.[Br-]` [METHSCOPOLAMINE BROMIDE], the IC50 result (in series [1]; in series [2]; at Progesterone receptor; on D(3) dopamine receptor (cho); in series [3]; on Cytochrome P450 2E1) was “Not Active” throughout. Further, the Ki entry (in series [2]; on Cytochrome P450 2E1) was “Not Active” in each case.
For the compound `Cc1nnc(NS(=O)(=O)c2ccc(N)cc2)s1` [SULFAMETHIZOLE], the IC50 entry (in series [1]; in series [2]; on Progesterone receptor; at D(3) dopamine receptor (cho); in series [3]; against Cytochrome P450 2E1) was “Not Active” in each case. In addition, the Ki result (in series [2]; on Cytochrome P450 2E1) was “Not Active” throughout.
As to `CC(=O)O[C@]1(C(C)=O)CC[C@H]2[C@@H]3C[C@H](C)C4=CC(=O)CC[C@]4(C)[C@H]3CC[C@@]21C` [MEDROXYPROGESTERONE ACETATE], the IC50 result in series [1] is “Not Active”; in series [2], “Not Active”; at Progesterone receptor (read-out: IC50), 2.25 nM; at D(3) dopamine receptor (cho) it was “Not Active”; in series [3], “Not Active”; against Cytochrome P450 2E1, “Not Active”. Besides, the Ki result in series [2] was “Not Active”; on Progesterone receptor (read-out: Ki), 0.293 nM; on Cytochrome P450 2E1, “Not Active”.
As to `CC1(C)[C@H](C(=O)O)N2C(=O)C[C@H]2S1(=O)=O` [SULBACTAM], the IC50 result (in series [1]; in series [2]; on Progesterone receptor; at D(3) dopamine receptor (cho); in series [3]; at Cytochrome P450 2E1) was “Not Active” each time. Besides, the Ki entry (in series [2]; on Cytochrome P450 2E1) was “Not Active” in each case.
For the compound `O=C(O)c1cc(/N=N/c2ccc(S(=O)(=O)Nc3ccccn3)cc2)ccc1O` [SULFASALAZINE], the IC50 entry (in series [1]; in series [2]; on Progesterone receptor; at D(3) dopamine receptor (cho); in series [3]; against Cytochrome P450 2E1) was “Not Active” throughout. For the same compound, the Ki result (in series [2]; at Cytochrome P450 2E1) was “Not Active” throughout.
As to `CCN(CC)CCNC(=O)c1cc(Cl)c(N)cc1OC` [METOCLOPRAMIDE], the IC50 result in series [1] is “Not Active”; in series [2], “Not Active”; on Progesterone receptor it was “Not Active”; at D(3) dopamine receptor (read-out: IC50), 200 nM; in series [3], “Not Active”; on Cytochrome P450 2E1, “Not Active”. Also, the Ki result in series [2] is “Not Active”; on D(3) dopamine receptor (read-out: Ki), 68 nM; at Cytochrome P450 2E1, “Not Active”.
For the compound `COC(=O)Nc1nc2ccc(C(=O)c3ccccc3)cc2[nH]1` [MEBENDAZOLE], the IC50 result (in series [1]; in series [2]; on Progesterone receptor; at D(3) dopamine receptor (cho); in series [3]; at Cytochrome P450 2E1) was “Not Active” each time. Also, the Ki result (in series [2]; on Cytochrome P450 2E1) was “Not Active” in each case.
For the compound `Cc1ccnc(NS(=O)(=O)c2ccc(N)cc2)n1` [SULFAMERAZINE], the IC50 result (in series [1]; in series [2]; on Progesterone receptor; on D(3) dopamine receptor (cho); in series [3]; at Cytochrome P450 2E1) was “Not Active” each time. Further, the Ki result (in series [2]; at Cytochrome P450 2E1) was “Not Active” each time.
With `C[C@]12CCC(=O)C[C@@H]1CC[C@@H]1[C@@H]2CC[C@]2(C)[C@@H](O)CC[C@@H]12` [STANOLONE], the IC50 result in series [1] was “Not Active”; in series [2], “Not Active”; at Progesterone receptor (read-out: IC50), 1250 nM; at D(3) dopamine receptor (cho), “Not Active”; in series [3] it was “Not Active”; on Cytochrome P450 2E1, “Not Active”. The Ki entry was “Not Active” in series [2], 163 nM on Progesterone receptor (read-out: Ki) and “Not Active” at Cytochrome P450 2E1.
